Reference: patent publication US20240033234A1, “THERAPEUTIC COMPOUNDS, FORMULATIONS, AND USE THEREOF” (Tvardi Therapeutics, Inc., priority 2022, published 2024)
Where “and” joins values, the source holds several entries; their conditions need not be identical. Identical values can stand only once.

Assay: Accelerated and long term stability study of TTI-101 (Batch A, Batch B): HPLC assay, purity, impurities and water content after storage at 5° C., 25° C./60% RH, 30° C./65% RH or 40° C./75% RH
Type: physicochemical
Experimental: Exemplary HPLC conditions: diluent was 0.1% trifluoroacetic acid (TFA) in acetonitrile, Mobile Phase A was 0.05% TFA in water, and Mobile Phase B was 0.05% TFA in acetonitrile, column (Agilent, Eclipse XDB-C18, 3.0×100 mm, particle size 1.8 μm), flow (0.425 mL/min), and detector (280 nm diode array).
Batch A was prepared analogously using Method 3 as described in Example 1. Batch B was prepared according to Method 5 as described in Example 1.
Samples of TTI-101 were stored at 5° C., 25° C./60% RH, 30° C./65% RH, or 40° C./75% RH. TTI-101 was stored in an LDPE bag enclosed with a Nylon cable tie and then transferred to another LDPE bag and enclosed with a Nylon cable tie. The enclosure was put into an HDPE bottle and closed with a polyethylene-lined polypropylene cap. The samples were stored under the above-identified conditions.
The samples were analyzed using HPLC with the exemplary conditions identified above. Relative retention time (RRT) for Compound 5 was about 0.83, Compound 4 was about 1.05-1.06, Compound 6 was about 1.15-1.17, and compound of formula (IV) was about 0.99.
• NA not applicable • NQ ≥0.02% and <0.05% • Avg average • Cmpd compound • — no peak • M month • RRT relative retention time

[1] = Storage 25° C./60% RH, 6 M, Prep P1-P2
[2] = Storage 25° C./60% RH, 6 M, Prep P1-P2, listed as Batch B
[3] = Storage 25° C./60% RH, 9 M, Avg
[4] = Storage 25° C./60% RH, 9 M, Prep P1-P2
[5] = Storage 25° C./60% RH, 9 M, Prep P1-P2, listed as Batch B
[6] = Storage 40° C./75% RH, 0 M, Avg
[7] = Storage 40° C./75% RH, 0 M, Prep P1-P5
[8] = Storage 40° C./75% RH, 0 M, Prep P1-P5, listed as Batch B
[9] = Storage 40° C./75% RH, 1 M, Avg
[10] = Storage 40° C./75% RH, 1 M, Prep P1-P2
[11] = Storage 40° C./75% RH, 3 M, Avg
[12] = Storage 40° C./75% RH, 3 M, Prep P1-P2
[13] = Storage 40° C./75% RH, 3 M, Prep P1-P2, listed as Batch B
[14] = Storage 40° C./75% RH, 6 M, Avg
[15] = Storage 40° C./75% RH, 6 M, Prep P1-P2
[16] = Storage 40° C./75% RH, 6 M, Prep P1-P2, listed as Batch B

In the case of `COc1ccc(S(=O)(=O)Nc2cc(-c3c(O)ccc4ccccc34)c(O)c3ccccc23)cc1` [TTI-101], the “Impurity RRT 0.84” value [1] is reported as “NQ (≥0.02% and <0.05%)”, the “Impurity RRT 0.87” value [1] is reported as “NQ (≥0.02% and <0.05%)” and the “Impurity RRT 1.05” value [1] is reported as “NQ (≥0.02% and <0.05%)”. For the same compound, the “Impurity RRT 1.06 (Cmpd 4)” value [1] was “NQ (≥0.02% and <0.05%)”, the “Impurity RRT 1.39” value [1] was “NQ (≥0.02% and <0.05%)” and the “Water Content” value [1] was less than 0.04%. For the same compound, the Assay [2] was 99.0% and 98.5%, the “Impurity RRT 1.17 (Cmp 6)” value [2] was 0.23 area % and 0.25 area % and the Purity [2] was 99.6% and 99.5%. The Assay [3] was 99.0%, the “Impurities Total” value [3] was 0.4 area % and the “Impurity RRT 0.84” value [3] was “NQ (≥0.02% and <0.05%)”. The “Impurity RRT 0.87” value [3] was “NQ (≥0.02% and <0.05%)”, the “Impurity RRT 0.99” value [3] was 0.12 area % and the “Impurity RRT 1.02” value [3] was 0.06 area %. The “Impurity RRT 1.16 (Cmp 6)” value [3] was 0.18 area %, the “Impurity RRT 1.39” value [3] was “NQ (≥0.02% and <0.05%)” and the Purity [3] was 99.5%. The “Water Content” value [3] was 0.1%, the “Impurities Total” value [4] was 0.4 area % and the “Impurity RRT 0.84” value [4] was “NQ (≥0.02% and <0.05%)”. The “Impurity RRT 0.87” value [4] was “NQ (≥0.02% and <0.05%)”, the “Impurity RRT 1.02” value [4] was 0.06 area % and the “Impurity RRT 1.16 (Cmp 6)” value [4] was 0.18 area %. The “Impurity RRT 1.39” value [4] was “NQ (≥0.02% and <0.05%)”, the “Water Content” value [4] was 0.1% and the Assay [5] was 99.7% and 98.2%. The “Impurity RRT 0.99” value [5] was 0.12 area % and 0.13 area %, the Purity [5] was 99.6% and 99.5% and the Assay [6] was 99.4%. For the same compound, the “Impurities Total” value [6] was 0.1 area %, the “Impurity RRT 0.61” value [6] was 0.05 area % and the “Impurity RRT 0.86” value [6] was “NQ (≥0.02% and <0.05%)”. For the same compound, the “Impurity RRT 0.88” value [6] was “NQ (≥0.02% and <0.05%)”, the “Impurity RRT 0.99” value [6] was “NQ (≥0.02% and <0.05%)” and the “Impurity RRT 1.16 (Cmp 6)” value [6] was 0.07 area %. For the same compound, the Purity [6] was 99.8%, the “Water Content” value [6] was 0.1% and the “Water Content” value (Storage 40° C./75% RH, 0 M, Prep P1-P2) was 0.1%. The “Impurities Total” value [7] was 0.1 area %, the “Impurity RRT 0.86” value [7] was “NQ (≥0.02% and <0.05%)” and the “Impurity RRT 0.99” value [7] was “NQ (≥0.02% and <0.05%)”. The Purity [7] was 99.8%, the Assay [8] was 99.0% and 100.5% and 99.3% and 99.5% and 98.8% and the “Impurity RRT 1.16 (Cmp 6)” value [8] was 0.08 area % and 0.07 area %. The Assay [9] was 99.2%, the “Impurities Total” value [9] was 0.6 area % and the “Impurity RRT 0.80” value [9] was “NQ (≥0.02% and <0.05%)”. For the same compound, the “Impurity RRT 0.84” value [9] was “NQ (≥0.02% and <0.05%)”, the “Impurity RRT 0.87” value [9] was “NQ (≥0.02% and <0.05%)” and the “Impurity RRT 0.99” value [9] was 0.14 area %. The “Impurity RRT 1.02” value [9] was 0.06 area %, the “Impurity RRT 1.05” value [9] was “NQ (≥0.02% and <0.05%)” and the “Impurity RRT 1.06 (Cmpd 4)” value [9] was “NQ (≥0.02% and <0.05%)”. The “Impurity RRT 1.17 (Cmp 6)” value [9] was 0.38 area %, the “Impurity RRT 1.39” value [9] was 0.05 area % and the Purity [9] was 99.3%. For the same compound, the “Water Content” value [9] was 0.1%, the “Impurities Total” value [10] was 0.6 area % and the “Impurity RRT 0.80” value [10] was “NQ (≥0.02% and <0.05%)”. For the same compound, the “Impurity RRT 0.84” value [10] was “NQ (≥0.02% and <0.05%)”, the “Impurity RRT 0.87” value [10] was “NQ (≥0.02% and <0.05%)” and the “Impurity RRT 0.99” value [10] was 0.14 area %. The “Impurity RRT 1.02” value [10] was 0.06 area %, the “Impurity RRT 1.05” value [10] was “NQ (≥0.02% and <0.05%)” and the “Impurity RRT 1.06 (Cmpd 4)” value [10] was “NQ (≥0.02% and <0.05%)”. For the same compound, the “Impurity RRT 1.17 (Cmp 6)” value [10] was 0.38 area %, the “Impurity RRT 1.39” value [10] was 0.05 area % and the Purity [10] was 99.3%. For the same compound, the “Water Content” value [10] was 0.1%, the Assay (Storage 40° C./75% RH, 1 M, Prep P1-P2, listed as Batch B) was 99.1% and 99.4% and the Assay [11] was 98.7%. The “Impurities Total” value [11] was 1.0 area %, the “Impurity RRT 0.38” value [11] was “NQ (≥0.02% and <0.05%)” and the “Impurity RRT 0.80” value [11] was “NQ (≥0.02% and <0.05%)”. For the same compound, the “Impurity RRT 0.84” value [11] was “NQ (≥0.02% and <0.05%)”, the “Impurity RRT 0.87” value [11] was “NQ (≥0.02% and <0.05%)” and the “Impurity RRT 0.99” value [11] was 0.24 area %. For the same compound, the “Impurity RRT 1.02” value [11] was 0.19 area %, the “Impurity RRT 1.06 (Cmpd 4)” value [11] was “NQ (≥0.02% and <0.05%)” and the “Impurity RRT 1.17 (Cmp 6)” value [11] was 0.37 area %. The “Impurity RRT 1.39” value [11] was 0.16 area %, the Purity [11] was 98.9% and the “Water Content” value [11] was 0.04%. For the same compound, the “Impurity RRT 0.38” value [12] was “NQ (≥0.02% and <0.05%)”, the “Impurity RRT 0.80” value [12] was “NQ (≥0.02% and <0.05%)” and the “Impurity RRT 0.84” value [12] was “NQ (≥0.02% and <0.05%)”. The “Impurity RRT 0.87” value [12] was “NQ (≥0.02% and <0.05%)”, the “Impurity RRT 0.99” value [12] was 0.24 area % and the “Impurity RRT 1.02” value [12] was 0.19 area %. For the same compound, the “Impurity RRT 1.39” value [12] was 0.16 area %, the Purity [12] was 98.9% and the Assay [13] was 98.5% and 99.0%. The “Impurities Total” value [13] was 1.0 area % and 0.9 area %, the “Impurity RRT 1.17 (Cmp 6)” value [13] was 0.39 area % and 0.35 area % and the “Water Content” value [13] was <0.04% and 0.04%. For the same compound, the Assay [14] was 98.4%, the “Impurities Total” value [14] was 1.0 area % and the “Impurity RRT 0.39” value [14] was “NQ (≥0.02% and <0.05%)”. The “Impurity RRT 0.80” value [14] was “NQ (≥0.02% and <0.05%)”, the “Impurity RRT 0.84” value [14] was “NQ (≥0.02% and <0.05%)” and the “Impurity RRT 0.87” value [14] was “NQ (≥0.02% and <0.05%)”. For the same compound, the “Impurity RRT 0.99” value [14] was “NQ (≥0.02% and <0.05%)”, the “Impurity RRT 1.02” value [14] was 0.34 area % and the “Impurity RRT 1.06 (Cmpd 4)” value [14] was “NQ (≥0.02% and <0.05%)”. For the same compound, the “Impurity RRT 1.17 (Cmp 6)” value [14] was 0.30 area %, the “Impurity RRT 1.27” value [14] was “NQ (≥0.02% and <0.05%)” and the “Impurity RRT 1.39” value [14] was 0.34 area %. The Purity [14] was 98.9%, the “Water Content” value [14] was less than 0.04% and the “Impurities Total” value [15] was 1.0 area %. For the same compound, the “Impurity RRT 0.39” value [15] was “NQ (≥0.02% and <0.05%)”, the “Impurity RRT 0.80” value [15] was “NQ (≥0.02% and <0.05%)” and the “Impurity RRT 0.84” value [15] was “NQ (≥0.02% and <0.05%)”. The “Impurity RRT 0.87” value [15] was “NQ (≥0.02% and <0.05%)”, the “Impurity RRT 0.99” value [15] was “NQ (≥0.02% and <0.05%)” and the “Impurity RRT 1.02” value [15] was 0.34 area %. For the same compound, the “Impurity RRT 1.06 (Cmpd 4)” value [15] was “NQ (≥0.02% and <0.05%)”, the “Impurity RRT 1.39” value [15] was 0.34 area % and the “Water Content” value [15] was less than 0.04%. The Assay [16] was 98.6% and 98.2%, the “Impurity RRT 1.17 (Cmp 6)” value [16] was 0.31 area % and 0.29 area % and the Purity [16] was 98.8% and 98.9%. For the same compound, the stability (over 24 months) was “excellent stability”.
